Reference: ChEMBL document CHEMBL1158695, “Cytotoxic sterol derivatives from a marine sponge Homaxinella sp” (2005)
Values after ≈ are worked out from the molar mass of the structure shown.

Legend:
Details in all cases: read-out: ED50 (the source's name)
A549 = assay: Cytotoxicity against human A549 cells; format: functional
SK-OV-3 = assay: Cytotoxicity against human SKOV3 cells; format: functional
SK-MEL-2 = assay: Cytotoxicity against human SK-MEL-2 cells; format: functional
XF498 = assay: Cytotoxicity against human XF498 cells; format: functional
[1] = tested on: HCT-15 (human colon cancer); assay: Cytotoxicity against human HCT15 cells

Row | Structure (SMILES) | EC50 (A549) | EC50 (SK-OV-3) | EC50 (SK-MEL-2) | EC50 (XF498) | EC50 [1]
1 | CC(C)[C@H](C)/C=C/[C@@H](C)[C@H]1CCC2C3=CC(=O)O[C@@]3(O)CC[C@@]21C (stereo not given in full) [DEMETHYLINCISTEROL A2] | 1.51 µg/mL (≈ 4.54 µM) | 1.49 µg/mL (≈ 4.48 µM) | 1.21 µg/mL (≈ 3.64 µM) | 0.93 µg/mL (≈ 2.8 µM) | 1.28 µg/mL (≈ 3.85 µM)
2 | CC[C@@H](/C=C/[C@@H](C)[C@H]1CCC2C3=CC(=O)O[C@@]3(O)CC[C@@]21C)C(C)C (stereo not given in full) [DEMETHYLINCISTEROL A4] | 0.92 µg/mL (≈ 2.66 µM) | 0.79 µg/mL (≈ 2.28 µM) | 0.55 µg/mL (≈ 1.59 µM) | 0.68 µg/mL (≈ 1.96 µM) | 0.65 µg/mL (≈ 1.88 µM)
3 | CCCCO[C@@H]1C=C2[C@@H]3CC[C@H]([C@H](C)/C=C/[C@H](CC)C(C)C)[C@@]3(C)CC[C@@H]2[C@@]2(C)CC[C@H](O)C[C@]12O [HOMAXISTEROL A4] | > 30 µg/mL | > 30 µg/mL | > 30 µg/mL | 34.1 µg/mL (≈ 68.1 µM) | > 30 µg/mL
4 | CC(C)C/C=C/[C@@H](C)[C@H]1CCC2C3=CC(=O)O[C@@]3(O)CC[C@@]21C (stereo not given in full) [DEMETHYLINCISTEROL A1] | 2.79 µg/mL (≈ 8.76 µM) | 1.7 µg/mL (≈ 5.34 µM) | 1.94 µg/mL (≈ 6.09 µM) | 1.08 µg/mL (≈ 3.39 µM) | 1.42 µg/mL (≈ 4.46 µM)
5 | CC(C)[C@@H](C)/C=C/[C@@H](C)[C@H]1CCC2C3=CC(=O)O[C@@]3(O)CC[C@@]21C (stereo not given in full) [DEMETHYLINCISTEROL A3] | 1.62 µg/mL (≈ 4.87 µM) | 1.97 µg/mL (≈ 5.93 µM) | 1.3 µg/mL (≈ 3.91 µM) | 1.14 µg/mL (≈ 3.43 µM) | 1.39 µg/mL (≈ 4.18 µM)
6 | CCCCO[C@@H]1C=C2[C@@H]3CC[C@H]([C@H](C)/C=C/CC(C)C)[C@@]3(C)CC[C@@H]2[C@@]2(C)CC[C@H](O)C[C@]12O [HOMAXISTEROL A1] | 8.54 µg/mL (≈ 18.1 µM) | 7.57 µg/mL (≈ 16 µM) | 6.88 µg/mL (≈ 14.6 µM) | 6.33 µg/mL (≈ 13.4 µM) | 7.62 µg/mL (≈ 16.1 µM)
7 | CCCCO[C@@H]1C=C2[C@@H]3CC[C@H]([C@H](C)/C=C/[C@@H](C)C(C)C)[C@@]3(C)CC[C@@H]2[C@@]2(C)CC[C@H](O)C[C@]12O [HOMAXISTEROL A2] | 6.23 µg/mL (≈ 12.8 µM) | 4.43 µg/mL (≈ 9.1 µM) | 3.69 µg/mL (≈ 7.58 µM) | 4.17 µg/mL (≈ 8.57 µM) | 4.4 µg/mL (≈ 9.04 µM)
8 | COc1cccc2c1C(=O)c1c(O)c3c(c(O)c1C2=O)C[C@@](O)(C(=O)CO)C[C@@H]3O[C@H]1C[C@H](N)[C@H](O)[C@H](C)O1 [DOXORUBICIN] | 0.11 µg/mL (≈ 0.202 µM) | 0.09 µg/mL (≈ 0.166 µM) | 0.04 µg/mL (≈ 0.0736 µM) | 0.07 µg/mL (≈ 0.129 µM) | 0.17 µg/mL (≈ 0.313 µM)
9 | CCCCO[C@@H]1C=C2[C@@H]3CC[C@H]([C@H](C)/C=C/[C@H](C)C(C)C)[C@@]3(C)CC[C@@H]2[C@@]2(C)CC[C@H](O)C[C@]12O [HOMAXISTEROL A3] | 8.42 µg/mL (≈ 17.3 µM) | 7.85 µg/mL (≈ 16.1 µM) | 6.1 µg/mL (≈ 12.5 µM) | 5.03 µg/mL (≈ 10.3 µM) | 7.1 µg/mL (≈ 14.6 µM)
